Experimental data published in publication PMC8290231 (Cancer Medicine, 2021).

Legend:
[1] = target: T1, FGFR2 (Homo sapiens, UniProt P21802); assay: KINOMEscan binding affinity assay
[2] = target: T2, FGFR3‐V555 M (Homo sapiens, UniProt P22607, V555M); assay: KINOMEscan binding affinity assay
T2 construct: purchased KINOMEscan™ (commercial assay)

[3] = test system: FGFR1 signal pathway in A549; assay: Western blot of FGFR1 signal pathway; type: cell-based
Experimental: (§1) Cells were treated with different concentrations of compound or DMSO for indicated time. Then, cells were lysed with 1 × SDS sample lysis buffer (recommended by CST). […] After blocking with 5% BSA in TBST solution (0.5% Tween‐20) at room temperature for 4 hrs, the membranes were incubated with the corresponding primary antibody (1:2000–1:200) at 4℃ overnight. After washing with TBST for 3–5 times, the HRP‐conjugated secondary antibodies were incubated for 2 hrs. The protein signals were detected with Amersham Imager 600 system (GE, Boston, MA, USA) using an ECL western blotting detection kit (Thermo Fisher Scientific, Waltham, MA, USA).
(§2) Cell lysates were separated by sodium dodecyl sulfate‐polyacrylamide gel electrophoresis (SDS‐PAGE) and analyzed by western blot for phosphorylated FGFR1, FGFR1, phosphorylated FRS2, FRS2, phosphorylated AKT (Ser473), AKT, phosphorylated Erk, and Erk. GAPDH was used as a control

[4] = test system: FGFR1 signal pathway in Ba/F3‐FGFR1; assay: Western blot of FGFR1 signal pathway; type: cell-based; conditions: Ba/F3‐FGFR1, 4 h, 3.7 nM to 300 nM
Experimental: as §1, §2

[5] = target: T3, FGFR4 (Homo sapiens, UniProt P22455); assay: FRET-based Z′-Lyte kinase assay; type: biochemical
T3 sequence (P22455 22-802): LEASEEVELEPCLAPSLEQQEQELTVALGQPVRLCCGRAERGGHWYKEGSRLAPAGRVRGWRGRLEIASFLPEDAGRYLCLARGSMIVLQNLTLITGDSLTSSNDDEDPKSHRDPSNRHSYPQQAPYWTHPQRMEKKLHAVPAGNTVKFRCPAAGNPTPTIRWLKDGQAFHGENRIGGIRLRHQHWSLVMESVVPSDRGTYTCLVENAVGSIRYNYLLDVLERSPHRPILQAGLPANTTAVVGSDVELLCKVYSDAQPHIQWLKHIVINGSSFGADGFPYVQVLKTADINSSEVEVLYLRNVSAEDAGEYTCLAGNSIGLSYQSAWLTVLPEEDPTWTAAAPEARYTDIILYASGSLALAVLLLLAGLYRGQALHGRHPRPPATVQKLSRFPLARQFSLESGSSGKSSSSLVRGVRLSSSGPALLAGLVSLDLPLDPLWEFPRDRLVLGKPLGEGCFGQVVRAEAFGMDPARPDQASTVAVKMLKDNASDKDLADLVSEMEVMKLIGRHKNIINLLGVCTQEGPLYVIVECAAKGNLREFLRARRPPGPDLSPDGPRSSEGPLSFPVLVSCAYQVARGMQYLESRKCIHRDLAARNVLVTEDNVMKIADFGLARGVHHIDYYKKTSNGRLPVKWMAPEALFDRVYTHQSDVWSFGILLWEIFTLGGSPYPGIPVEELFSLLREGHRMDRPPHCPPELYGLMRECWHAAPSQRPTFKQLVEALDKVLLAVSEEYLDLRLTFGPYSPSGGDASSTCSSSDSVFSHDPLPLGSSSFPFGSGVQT

[6] = Mortality and body weight in xenograft studies; type: in vivo, CB17‐SCID mice; conditions: 10 or 20 mg/kg q2d, oral gavage, xenograft mice
Source text: (§3) All animal studies were approved by the Institutional Animal Care and Use Committee. Male CB17‐SCID mice were purchased from Vital River Laboratory Animal Technology Inc. (Beijing, China). The right flanks of SCID mice were subcutaneously injected with 2 x 10^6 Ba/F3‐FGFR1, Ba/F3‐FGFR1‐V561F, or Ba/F3‐FGFR1‐V561M cells, respectively. When the average tumor volume reached 100–200 mm^3, mice bearing tumor were randomly divided into groups and treated with compounds or vehicle. All the compounds were suspended in 0.5% CMC‐Na aqueous solution. […] The body weight and tumor volume of animals were measured once every 2 days. Tumor volumes were calculated as L×W×W/2, where L and W are the length and width of the tumor, respectively. At the experiment terminal, tumor tissues were dissected, paraffin embedded, and sectioned for hematoxylin and eosin (H&E), immunohistochemistry (IHC), and TUNEL analysis.

[7] = test system: FGFR1–FGFR3 cell lines; assay: CCK-8 proliferation, cancer cells harboring FGFR aberrations (summary range); type: cell-based; conditions: range over cell lines of Table 2; read-out: antiproliferative IC50 values, FGFR1–FGFR3 cell lines
Experimental: Cells were seeded in 96‐well plate in complete medium (1000–6000 cells/well) and cultured for overnight. Then the cells were exposed to gradient concentrations (0.0005–10 μM) of compounds. Cell proliferation was analyzed by Cell Counting Kit 8 (CK04, Dojindo Laboratories, Japan) after co‐incubation for a further 72 h. IC50 values were calculated by fitting of concentration–response curves using GraphPad Prism 8.01 software. Each assay was repeated at least three times.
The expression and activation levels of FGFR1–4 in these cells were determined via western blot experiments (Figure S1).

[8] = test system: Ba/F3‐FGFR1; assay: Apoptosis assay by flow cytometry (Annexin V / 7-AAD); type: cell-based; conditions: Ba/F3‐FGFR1, 100 nM, 48 h
Experimental: After incubation, cells were collected and washed twice with pre‐cold PBS. About 6 × 10^5 cells were resuspended in 100 μl of 1× BD binding buffer solution (#556454, BD), and then stained with 7‐ADD (#559925, BD) and Annexin V‐PE (#556422, BD) in the dark for 15 min. Finally, 400 μl of 1×BD binding buffer solution were added to stop dyeing. The cells were then measured on a Guava easyCyte flow cytometer (Merck, USA).

[9] = target: T3, FGFR4; assay: KINOMEscan binding affinity assay
[10] = target: T4, FGFR2‐N550K (Homo sapiens, UniProt P21802, N549K); assay: KINOMEscan binding affinity assay
T4 construct: purchased KINOMEscan™ (commercial assay)
T4 sequence (P21802 22-822 isoform P21802-3 N550K limits assumed): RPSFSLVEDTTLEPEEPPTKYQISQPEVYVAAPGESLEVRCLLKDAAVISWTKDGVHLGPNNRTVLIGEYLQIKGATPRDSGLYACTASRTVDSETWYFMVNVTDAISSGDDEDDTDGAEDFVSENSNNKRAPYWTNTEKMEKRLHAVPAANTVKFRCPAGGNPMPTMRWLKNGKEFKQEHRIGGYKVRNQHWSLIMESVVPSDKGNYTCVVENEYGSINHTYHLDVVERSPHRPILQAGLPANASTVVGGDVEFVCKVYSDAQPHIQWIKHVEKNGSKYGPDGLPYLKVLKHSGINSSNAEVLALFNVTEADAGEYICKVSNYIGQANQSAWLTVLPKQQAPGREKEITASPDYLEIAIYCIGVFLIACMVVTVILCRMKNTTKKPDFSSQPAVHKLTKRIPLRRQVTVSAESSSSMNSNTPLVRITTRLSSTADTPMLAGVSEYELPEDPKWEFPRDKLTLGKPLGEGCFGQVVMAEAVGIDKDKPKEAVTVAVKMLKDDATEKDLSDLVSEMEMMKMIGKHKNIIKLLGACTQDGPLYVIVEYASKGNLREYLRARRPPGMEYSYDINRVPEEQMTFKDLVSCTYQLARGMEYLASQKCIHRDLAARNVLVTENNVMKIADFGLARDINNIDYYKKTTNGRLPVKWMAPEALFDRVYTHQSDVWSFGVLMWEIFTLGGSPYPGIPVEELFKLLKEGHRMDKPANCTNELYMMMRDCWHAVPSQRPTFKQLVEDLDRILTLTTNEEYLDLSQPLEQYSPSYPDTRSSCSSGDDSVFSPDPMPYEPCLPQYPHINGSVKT

[11] = test system: FGFR1‐V561F; assay: Cellular thermal shift assay (CETSA) in Ba/F3‐FGFR1‐V561F cells; type: binding; conditions: 100 nM, 38.0 to 57.8℃
Experimental: Pairs consisting of one experimental aliquot and one DMSO aliquot were heated from 38.0 to 57.8℃ for 3 min. Then, the samples were exposed to liquid nitrogen for 10 min, and then placed in a water bath at 37℃ for 10 min. After three freeze–thaw cycles, cell lysates were centrifuged at 12000 rpm at 4℃ for 10 min, and then boiled for 15 min. The soluble supernatant was used for WB analysis.
Drug‐treated cells were heated at gradient temperature from 38℃ to 57.8℃ for 3 min and then lysed, centrifuged to separate the soluble fractions from precipitates. The soluble fractions were analyzed by immunoblotting. Relative band intensities were plotted as a function of temperature followed a sigmoidal trend.

[12] = test system: Ba/F3‐FGFR1; assay: Cell cycle analysis by flow cytometry (propidium iodide); type: cell-based; conditions: Ba/F3‐FGFR1, 100 nM, 24 h
Experimental: About 6 × 10^5 cells were re‐suspended in 150 μl of BD Cytofix/Cytoperm buffer solution I for 10 min at room temperature. The cell suspensions were added with BD Cytofix/Cytoperm buffer solution II and incubated with another 10 min at room temperature, and then incubated with 200 μl of propidium iodide buffer (0.1 mg/ml) in the dark for 10 min at 4℃. Assays were performed with a Guava easyCyte flow cytometer (Merck, USA).

[13] = target: T5, FGFR3‐G697C (Homo sapiens, UniProt P22607, G697C); assay: KINOMEscan binding affinity assay
T5 construct: purchased KINOMEscan™ (commercial assay)
T5 sequence (P22607 23-806 G697C): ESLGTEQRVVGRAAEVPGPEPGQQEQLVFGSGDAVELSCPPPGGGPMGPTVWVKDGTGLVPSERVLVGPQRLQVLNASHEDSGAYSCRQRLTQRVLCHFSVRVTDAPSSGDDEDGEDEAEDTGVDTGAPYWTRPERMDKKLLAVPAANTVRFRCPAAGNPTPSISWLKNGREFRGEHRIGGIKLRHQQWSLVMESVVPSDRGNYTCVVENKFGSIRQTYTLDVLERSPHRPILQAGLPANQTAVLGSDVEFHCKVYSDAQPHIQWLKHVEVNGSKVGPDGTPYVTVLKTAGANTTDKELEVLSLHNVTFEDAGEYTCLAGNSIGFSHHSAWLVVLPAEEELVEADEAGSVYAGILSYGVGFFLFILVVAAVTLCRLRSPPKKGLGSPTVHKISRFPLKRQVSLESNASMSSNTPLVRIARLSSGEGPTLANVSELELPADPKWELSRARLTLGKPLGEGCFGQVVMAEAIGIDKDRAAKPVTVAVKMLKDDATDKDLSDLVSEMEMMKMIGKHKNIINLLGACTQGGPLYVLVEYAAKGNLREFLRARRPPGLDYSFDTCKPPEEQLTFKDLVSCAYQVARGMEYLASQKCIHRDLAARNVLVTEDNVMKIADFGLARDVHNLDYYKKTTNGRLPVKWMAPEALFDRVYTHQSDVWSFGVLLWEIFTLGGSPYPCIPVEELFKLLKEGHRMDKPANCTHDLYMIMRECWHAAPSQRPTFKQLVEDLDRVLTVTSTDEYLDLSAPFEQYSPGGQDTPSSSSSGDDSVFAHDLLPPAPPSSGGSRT

[14] = test system: FGFR1 in all Ba/F3 stable cells; assay: Western blot of total FGFR1 protein; type: cell-based; conditions: 4 h
Experimental: as §1
However, its effects on FGFR1 downstream signal pathway in A549 cells were very weak as a negative control.

[15] = target: T1, FGFR2; assay: FRET-based Z′-Lyte kinase assay; type: biochemical
[16] = target: FGFR3 (Homo sapiens, UniProt P22607); assay: KINOMEscan binding affinity assay
Chain of FGFR3 (P22607 23-806): as the sequence (P22607 23-806 G697C) above, with C675G counted along it

[17] = test system: Ba/F3‐FGFR1‐V561M xenograft; assay: Mouse xenograft tumor model; type: in vivo, CB17‐SCID mice; conditions: 20 mg/kg, p.o., q2d (b60 prints Bid)
Source text: as §3

T1 sequence (P21802 22-821): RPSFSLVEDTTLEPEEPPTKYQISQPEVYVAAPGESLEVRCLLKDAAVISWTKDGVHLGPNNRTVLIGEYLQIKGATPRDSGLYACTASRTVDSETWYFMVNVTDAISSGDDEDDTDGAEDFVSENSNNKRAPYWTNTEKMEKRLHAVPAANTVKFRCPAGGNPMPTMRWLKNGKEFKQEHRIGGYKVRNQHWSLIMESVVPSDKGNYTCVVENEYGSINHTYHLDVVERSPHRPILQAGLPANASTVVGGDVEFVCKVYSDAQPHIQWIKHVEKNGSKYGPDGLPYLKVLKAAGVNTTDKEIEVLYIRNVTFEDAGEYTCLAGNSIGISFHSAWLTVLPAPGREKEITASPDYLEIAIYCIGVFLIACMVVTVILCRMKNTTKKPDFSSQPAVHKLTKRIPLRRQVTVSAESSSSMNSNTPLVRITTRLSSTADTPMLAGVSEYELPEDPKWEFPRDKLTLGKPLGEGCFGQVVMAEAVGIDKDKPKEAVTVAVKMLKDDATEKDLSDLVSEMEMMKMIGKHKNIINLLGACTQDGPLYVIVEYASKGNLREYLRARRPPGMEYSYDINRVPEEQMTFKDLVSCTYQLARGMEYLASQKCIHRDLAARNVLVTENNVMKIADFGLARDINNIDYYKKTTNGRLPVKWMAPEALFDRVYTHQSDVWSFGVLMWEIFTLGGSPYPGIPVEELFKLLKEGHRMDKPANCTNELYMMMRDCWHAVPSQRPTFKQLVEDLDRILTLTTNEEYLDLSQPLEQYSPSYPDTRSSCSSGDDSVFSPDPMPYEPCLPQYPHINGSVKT
T2 sequence (P22607 23-806 V555M): as the sequence (P22607 23-806 G697C) above, with V533M, C675G counted along it

Cc1ccc(C(=O)Nc2ccc(CN3CCN(C)CC3)c(C(F)(F)F)c2)cc1C#Cc1cnc2[nH]ncc2c1 [GZD824]
Kd [1]: 15.5 ± 3.5 nM
Kd [2]: 19.5 ± 4.9 nM
total level of FGFR1 protein expression ([3]; A549): no obvious effect
effects on FGFR1 downstream signal pathway ([3]; A549, negative control): very weak
FGFR1 phosphorylation, downstream FRS2 and ERK1/2 [4]: dose‐dependent inhibition
IC50 [5]: 30.3 ± 21.7 nM
mortality and body weight during experiment [6]: no mortality or significant loss of body weight
IC50 [7]: 4 to 91 nM
apoptosis [8]: 65.73%
Kd [9]: 19 ± 1.4 nM
Kd [10]: 17 ± 5.7 nM
thermal stability of FGFR1‐V561F protein (CETSA) [11]: significantly enhanced
G0/G1 phase [12]: 70.88%
Kd [13]: 39.5 ± 7.8 nM
dose showing obvious degradation of FGFR1 [14]: ≥ 33.3 nM
IC50 [15]: 2.77 ± 0.082 nM
EC50 ([15]; Figure 1B curve fit): 2.72 nM
Kd [16]: 17 ± 1.4 nM
tumor growth inhibition (TGI) [17]: 49.8%
